Read-outs that look alike come from different tables or passages of the source.
What was measured:
[1] = tested on: cultured rat hippocampal slices (CA1 region); assay: Hypoxia induced neurodegeneration in organotypic hippocampal slice cultures; format: cell-based, Wistar rat; conditions: 100 μM; compound present 24 hours pre-, during 3 hours of and 24 hours post-hypoxia; vs hypoxia alone
Procedure: (§1) Wistar rat pups (8-11 days old) were decapitated and the hippocampus rapidly dissected into ice-cold Gey's balanced salt solution supplemented with 4.5 mg/mL glucose. Transverse sections (400 μm) were cut on a McIlwain tissue chopper and placed back into ice-cold Gey's balanced salt solution. Slices were separated and plated onto Millicell CM culture inserts (4 per well) and maintained at 37° C./5% CO2 for 14 days. Maintenance medium consists of 25% heat-inactivated horse serum, 25% Hank's balanced salt solution (HBSS) and 50% minimum essential medium with added Earle's salts (MEM), supplemented with 1 mM glutamine and 4.5 mg/mL glucose. Medium was changed every 3-4 days.
PI fluorescence was detected using a Leica DMIL inverted microscope fitted with a rhodamine filter set. […]
Neuronal damage was assessed using ImageJ software running on a PC. […] Light transmission images were captured prior to the addition of drugs, and PI fluorescence images recorded at the end of the 24-hour recovery period. The area of the CA1 region was then determined from the transmission image. The area of PI fluorescence in the CA1 is measured using the threshold function on ImageJ, and neuronal damage expressed as the percentage of the CA1 in which PI fluorescence is detected above background (Pringle et al., 1997).

[2] = tested on: cultured rat hippocampal slices (CA1 region); assay: Ischaemia (oxygen glucose deprivation) induced neurodegeneration in organotypic hippocampal slice cultures; format: cell-based, Wistar rat
Procedure: as §1
(§2) Neuronal damage was assessed using ImageJ software running on a PC. Images being captured using a monochrome CCD camera and saved for offline analysis. Light transmission images were captured prior to the addition of drugs, and PI fluorescence images recorded at the end of the 24-hour recovery period. The area of the CA1 region was then determined from the transmission image. The area of PI fluorescence in the CA1 is measured using the threshold function on ImageJ, and neuronal damage expressed as the percentage of the CA1 in which PI fluorescence is detected above background (Pringle et al., 1997).
(§3) In this case the sodium selenate was made to 50 mM in SFM, then serially diluted to 25 mM, 10 mM and 1 mM, each of these used at 10 μL/mL to give final concentrations of 10 μM, 100 μM, 250 μM and 500 μM. Sodium selenite and selenomethionine as before. An experiment to assess the toxicity of sodium selenate at these higher concentrations was run in parallel with the OGD (Results FIG. 4).

[3] = tested on: cultured rat hippocampal slices; assay: Tissue culture toxicity screen in organotypic hippocampal slice cultures
Procedure: as §1, §2
A preliminary toxicity screen was carried out on the compounds to determine tissue culture exposure levels that would cause toxicity. […] Damage was measured after 24 hours and 48 hours.
as §3

PTZ induced seizures = conditions: for Number of seizures: 30 minutes observation; for Number of seizures / Duration of seizure activity / Number of severe seizures / Latency to seizure onset: mean±SEM; for Latency to seizure onset: not significant vs vehicle
Procedure: All animal experiments were carried out according to the National Institute of Health (NIH) guidelines for the care and use of laboratory animals, and approved by the Ethical Committee of the National Laboratory Animal Center, Kuopio, Finland. Altogether 30 adult male Sprague-Dawley rats (Taconic, Denmark) weighing 200-240 g were used. Animals were housed at a standard temperature (22±1° C.) and in a light-controlled environment (lights on from 7 am to 8 pm) with ad libitum access to food and water.
Animals were grouped as follows: • 10 rats treated with vehicle (sterile water as drinking water). • 10 rats treated with sodium selenate anhydrous (120 microgram in 100 mL sterile water), p.o in drinking water for 7 days prior to PTZ injection. • 10 rats treated with sodium selenate anhydrous (1.2 milligram in 100 mL sterile water), p.o in drinking water for 7 days prior to PTZ injection. PTZ Induced Seizures
Pentylenetetrazol (PTZ) (60 mg/kg) is administered intraperitoneally (i.p., 2 mL/kg in saline) to male Sprague-Dawley rats.
Sodium selenate is administered p.o in drinking water for 7 days prior to PTZ injection. The rats have ad libitum access to water (normal daily consumption of water is 30 mL/rat/day).
The incidence of seizures (seizure and severe seizure), the latency for the first seizure appearance and the duration of seizure activity were used as indices of anticonvulsant effect. Seizure numbers were not counted if the animal died. […] Animals that died were assigned the maximum seizure duration of 30 minutes. […] Severe seizure was defined as a prolonged seizure involving stretching and twisting convulsions.
Values are presented as percentages and differences are considered to be statistically significant at the P<0.05 level. Statistical analysis was performed using StatsDirect software. Differences among groups were analyzed by 1-way-ANOVA followed by Dunnet's test (comparison to the control (=vehicle treated PTZ rats) group).

[4] = 100 μM, compound present 24 hours pre-, during 1 hour of and 24 hours post-ischaemia, vs OGD alone
[5] = 120 μg in 100 mL drinking water p.o. 7 days prior to PTZ
[6] = 1.2 mg in 100 mL drinking water p.o. 7 days prior to PTZ

Row | Structure (SMILES) | Neuronal damage (PI fluorescence in CA1) after hypoxia [1] | Neuronal damage (PI fluorescence in CA1) after OGD ischaemia [2, 4] | Concentration above which compound was toxic in tissue culture ([3]; serum free media, tested at 5 μM, 25 μM and 100 μM, damage measured after 24 hours and 48 hours) | Toxicity in tissue culture in the absence of hypoxia ([3]; 500 μM, run in parallel with the OGD experiment (FIG. 4)) | Tissue culture toxicity ([3]; serum free media, any concentration tested up to 100 μM, 24 hours and 48 hours) | Neuronal damage (PI fluorescence in CA1) after OGD ischaemia ([2]; 250 μM, pre, during and post-ischaemia, vs OGD alone) | Neuronal damage (PI fluorescence in CA1) after OGD ischaemia ([2]; 500 μM, pre, during and post-ischaemia) | Number of seizures (PTZ induced seizures; [5]) | Duration of seizure activity (PTZ induced seizures; [5]) | Number of severe seizures (PTZ induced seizures; [5]) | Latency to seizure onset (PTZ induced seizures; [5]) | Mortality (PTZ induced seizures; 120 μg in 100 mL drinking water p.o. for 7 days prior to PTZ 60 mg/kg i.p., 10 rats) | Number of seizures (PTZ induced seizures; [6]) | Duration of seizure activity (PTZ induced seizures; [6]) | Number of severe seizures (PTZ induced seizures; [6]) | Latency to seizure onset (PTZ induced seizures; [6])
1 | O=C(O)c1ccc(C2=C3C=CC(=N3)C(c3ccc(C(=O)O)cc3)=c3ccc([nH]3)=C(c3ccc(C(=O)O)cc3)c3ccc([n-]3)C(c3ccc(C(=O)O)cc3)c3ccc2[n-]3)cc1.[Cl-].[Mn+3] (stereo not drawn) [MnTBAP, Mn(III)tetrakis(4-benzoic acid)porphyrin chloride, reference compound] | prevented | prevented |  |  |  |  |  |  |  |  |  |  |  |  |  | 
2 | O=[Se](O)O [Sodium selenite, reference compound] |  |  | above 5 μM |  |  |  |  |  |  |  |  |  |  |  |  | 
3 | O=[Se](=O)(O)O [sodium selenate] | Significant attenuation of damage | Significant attenuation of damage |  | neurotoxicity | not found to be toxic | Significant attenuation of damage | significant increase in toxicity | 8.5±2.1 | 770.9 ± 189.9 s | 0.8±0.1 | 217.6 ± 117.6 s | 1 animal | 9.9±2.2 | 808.6 ± 126.1 s | 0.9±0.1 | 107.6 ± 26.9 s

Source: patent US9415063B2, “Treatment of neurological disorders” (VELACOR THERAPEUTICS PTY LTD., priority 2007, dated 2016)
